{
  "source": "patent EP2039683B1",
  "about": "“Vasculostatic agents and methods of use thereof” (Targegen, Inc., priority 2002, dated 2004)",
  "key": {"[1]": {"experiment": "Cerebral stroke model, permanent middle cerebral artery occlusion", "format": "in vivo, mice", "conditions": "1 mg/kg BW IV 60 min after ligation; for Infarct area in mm^3 (mean ± SEM): twenty four hours later; for % Infarct reduction: versus vehicle of the same study", "description": "Cerebral strokes were created in mice by permanent ligation of the middle cerebral artery using a cauterizing tool, followed 60 min later by IV injection of either vehicle alone (50% PEG400 in water) or test agents (at 1 mg/kg BW). Twenty four hours later, brains were sectioned and stained using triphenyltetrazolium chloride to delineate viable from infarcted tissue."}, "histamine as agonist": {"tested_on": "histamine as agonist", "experiment": "Miles assay, histamine as agonist", "format": "in vivo, Sprague-Dawley rats", "conditions": "1.5 mg/kg; histamine 10 µg/injection site; vehicle 12", "description": "Sprague-Dawley rats were first injected IV with vehicle alone or test agent, followed by IV injection of Evans blue dye, followed by intradermal injections of saline and VEGF (200 ng/injection site) along both shaved flanks.\nThe ability of test agents to influence edema induced by agonists other than VEGF was also tested.\nThe ability of test agent to influence vascular edema was tested as above, except that the ability to block edema was tested using either VEGF or histamine as the agonist (200 ng and 10 µg/injection site, respectively)."}, "angiogenesis": {"tested_on": "angiogenesis", "experiment": "Matrigel plug angiogenesis model, FITC-lectin quantification", "format": "in vivo, Athymic WeHi (nu/nu) mice", "conditions": "10 mg/kg intraperitoneally bid for four days; matrigel with 400 ng/ml bFGF or VEGF", "description": "FIGURE 13 (omitted) and 14 (omitted) illustrate the effects of invention compounds for their capacity to inhibit angiogenesis in vivo. […] Tumor extracellular matrix infused with the 160 ng of the described growth factors were injected subcutaneously in a Balb/C mouse. The described invention compound was injected daily at the described concentration for 5 days. After 5 days the animals were sacrificed and angiogenesis quantified based on the binding of fluorescently labeled, endothelium specific FITC-lectin. In the graph, compound A is 6,7-bis(4-hydroxyphenyl)-pteridin-4-ylamine sulfate salt.\nReferring to FIGURES 13 (omitted) and 14 (omitted), a murine model of angiogenesis was used to screen compounds for their capacity to inhibit angiogenesis. […] In the graph, compound A is 6,7-bis(4-hydroxyphenyl)-pteridin-4-ylamine sulfate salt. Athymic WeHi (nu/nu) mice were first injected with 400; jls of an ice- cold tumor-derived extracellular matrix substrate, matrigel (Becton-Dickinson) infused with 400 ng/ml of bFGF or VEGF (R & D Systems) which rapidly solidifies into a subdermal plug at body temperature. […] Twenty minutes after injection of the lectin, mice were euthanized, matrigel plugs were then extracted, solublized in PBS with mechanical grinding and the fluorescent content of individual plugs was quantified. […]"}, "CTLL2": {"tested_on": "CTLL2", "experiment": "IL-2 dependent T-cell proliferation, XTT assay", "format": "cell-based, mouse", "conditions": "96 hours, 50 pg human recombinant IL-2"}, "IL-2 induced VLS": {"tested_on": "IL-2 induced VLS", "experiment": "IL-2 induced vascular leak syndrome, organ wet/dry weight", "conditions": "compound D in the 1 mg/kg range, compound E in the 0.1 mg/kg range; for reduction of VLS in the heart / reduction of VLS in the spleen: 9 injections of murine IL-2 and/or compound over 4 days", "source_text": "BalbC mice were given 9 injections of the indicated dose of murine IL-2 (in this example formulated in saline with 5% bovine serum albumin) and/or invention compounds over a period of 4 days. Animals were then sacrificed followed by collection, blotting and weighing (wet weight) of heart, lungs, and spleen.\nBalbC mice were given 9 injections of the indicated dose of murine IL-2 and/or invention compounds over a period of 4 days. Animals were then sacrificed followed by collection, blotting and weighing (wet weight) of heart, lungs, and spleen."}, "[2]": {"experiment": "Oleic acid induced ARDS lung edema, wet/dry weight", "format": "in vivo, NIH Swiss mice", "conditions": "0.5 mg/kg range; 1.5 mg/kg Oleic Acid intraperitoneal, lungs collected after four hours", "description": "FIGURE 12 (omitted) illustrates the effects of invention compounds for their capacity to inhibit edema associated with Acute Respiratory Distress Syndrome (ARDS). NIH Swiss mice were given an intraperitoneal injection of 1.5 mg/kg Oleic Acid of (in this example formulated in saline) and/or invention compounds.\nNIH Swiss mice were given an intraperitoneal injection of 1.5 mg/kg Oleic Acid of (in this example formulated in saline) and/or invention compounds."}},
  "data": [
    {"smiles": "Oc1nc(O)c2nc(-c3ccccc3)c(-c3ccccc3)nc2n1", "note": "[6,7-Diphenyl-pteridine-2,4-diol]", "values": [
      {"measurement": "Infarct area in mm^3 (mean ± SEM)", "setting": "[1]", "value": "20.2 ± 4.19", "unit": "mm^3"},
      {"measurement": "% Infarct reduction", "setting": "[1]", "value": 52, "unit": "%"}
    ]},
    {"smiles": "Nc1ncnc2nc(-c3ccccn3)c(-c3ccccn3)nc12", "note": "[6,7-Di-pyridin-2-yl-pteridin-4-ylamine]", "values": [
      {"measurement": "Infarct area in mm^3 (mean ± SEM)", "setting": "[1]", "value": "27.2 ± 2.63", "unit": "mm^3"},
      {"measurement": "% Infarct reduction", "setting": "[1]", "value": "Not significant"}
    ]},
    {"smiles": "O=C(Nc1cc2ccccc2[nH]1)c1cc(O)c(O)c(O)c1", "note": "[3,4,5-Trihydroxy-N-(1H-indol-2-yl)-benzamide]", "values": [
      {"measurement": "Score with histamine as agonist (scale of 0-12)", "setting": "histamine as agonist", "value": 7}
    ]},
    {"smiles": "Cc1ccc(-c2nn(C(C)(C)C)c3ncnc(N)c23)cc1", "note": "[PP1, reference compound]", "values": [
      {"measurement": "% Infarct reduction", "setting": "[1]", "value": "Not significant"}
    ]},
    {"smiles": "Nc1ncnc2nc(-c3ccc(O)cc3)c(-c3ccc(O)cc3)nc12.O=S(=O)(O)O", "note": "[compound A, 6,7-bis(4-hydroxyphenyl)-pteridin-4-ylamine sulfate salt]", "values": [
      {"measurement": "inhibition of angiogenesis in vivo", "setting": "angiogenesis", "value": "successfully inhibited angiogenesis in vivo"}
    ]},
    {"smiles": "O=C(O)c1ccccc1C(=O)Nc1ccccc1-c1cc2ccccc2[nH]1", "note": "[compound D]", "values": [
      {"measurement": "impact on IL-2 induced T-cell proliferation", "setting": "CTLL2; in the 1 mg/kg range as printed", "value": "no significant impact"},
      {"measurement": "reduction of VLS in the heart", "setting": "IL-2 induced VLS", "value": "> 100", "unit": "%"},
      {"measurement": "reduction of VLS in the spleen", "setting": "IL-2 induced VLS", "value": "> 100", "unit": "%"},
      {"measurement": "reducing VLS in vivo", "setting": "IL-2 induced VLS", "value": "80-100%"},
      {"measurement": "Infarct area in mm^3 (mean ± SEM)", "setting": "[1]", "value": "15.6 ± 5.16", "unit": "mm^3"},
      {"measurement": "% Infarct reduction", "setting": "[1]", "value": 63, "unit": "%"}
    ]},
    {"smiles": "Nc1ncnc2nc(-c3ccc(O)c(O)c3)c(-c3ccc(O)c(O)c3)nc12", "note": "[compound F, 4-[4-amino-6-(3,4-dihydroxyphenyl)pteridin-7-yl]benzene-1,2-diol]", "values": [
      {"measurement": "reduction of ARDS-induced edema", "setting": "[2]", "value": "> 100", "unit": "%"}
    ]},
    {"smiles": "CN(C)S(=O)(=O)c1ccc2c(c1)/C(=C/c1cc3c([nH]1)CCCC3)C(=O)N2", "note": "[SU6656, reference compound]", "values": [
      {"measurement": "Infarct area in mm^3 (mean ± SEM)", "setting": "[1]", "value": "24.3 ± 5.3", "unit": "mm^3"},
      {"measurement": "% Infarct reduction", "setting": "[1]", "value": "Not significant"}
    ]},
    {"smiles": "Oc1ncnc2nc(-c3ccccc3)c(-c3ccccc3)nc12", "note": "[6,7-Diphenyl-pteridin-4-ol]", "values": [
      {"measurement": "Score with histamine as agonist (scale of 0-12)", "setting": "histamine as agonist", "value": 4}
    ]},
    {"smiles": "O=C(Nc1ccccc1-c1cc2ccccc2[nH]1)c1cc(O)c(O)c(O)c1", "note": "[3,4,5-Trihydroxy-N-[2-(1H-indol-2-yl)-phenyl]-benzamide]", "values": [
      {"measurement": "Score with histamine as agonist (scale of 0-12)", "setting": "histamine as agonist", "value": 7}
    ]},
    {"smiles": "Nc1nc(N)c2nc(-c3cccc(O)c3)c(-c3cccc(O)c3)nc2n1.O=S(=O)(O)O", "note": "[compound E]", "values": [
      {"measurement": "impact on IL-2 induced T-cell proliferation", "setting": "CTLL2; in the therapeutic range (< 1pM)", "value": "no significant impact"},
      {"measurement": "reduction of VLS in the heart", "setting": "IL-2 induced VLS", "value": "> 100", "unit": "%"},
      {"measurement": "reduction of VLS in the spleen", "setting": "IL-2 induced VLS", "value": "> 100", "unit": "%"},
      {"measurement": "reducing VLS in vivo", "setting": "IL-2 induced VLS", "value": "80-100%"}
    ]}
  ]
}
